Several values for one entry are separate records, joined by “and”; a condition that tells them apart may be missing. Equal entries are not always repeated.

Test [1] deals with RTV-006782. Kind of test: Phenotypic susceptibility assay, RTV-006782. The class given is cell-based, HIV. To be noted: patient 006782; for decrease in susceptibility: V245T, I135T, E138A. From the text:
(§1) The resistance test vectors containing a functional luciferase gene cassette were constructed and host cells were transfected with the resistance test vector DNA. The resistant test vectors contained patient-derived reverse transcriptase and protease sequences that were either susceptible or resistant to the antiretroviral agents, such as nucleoside reverse transcriptase inhibitors, (NRTIs) non-nucleoside reverse transcriptase inhibitors […] protease inhibitors. The resistance test vector viral particles produced by transfecting the resistance test vector DNA into host cells, either in the presence or absence of PRIs, were used to infect target host cells grown either in the absence of NRTIs or NNRTIs, or in the presence of increasing concentrations of the drug. The amount of luciferase activity produced in infected target host cells in the presence of varying concentrations of drug was compared to the amount of luciferase produced in infected target host cells in the absence of drug. “Drug resistance” was measured as the amount of drug required to inhibit by 50% the luciferase activity detected in the absence of drug (inhibitory concentration 50%, IC50). The IC50 values were determined by plotting percent drug inhibition vs. log10 drug concentration. Stimulation of viral replication was measured as the percent increase in luciferase activity detected when infection occurs in the presence of drug as compared to in the absence of drug.
(§2) Host cells were seeded in 10-cm-diameter dishes and were transfected several days after plating with resistance test vector plasmid DNA and the envelope expression vector. Transfections were performed using a calcium-phosphate precipitation procedure. The cell culture media containing the DNA precipitate was replaced with fresh medium, from one to 24 hours, after transfection. Cell culture media containing resistance test vector viral particles was harvested one to four days after transfection and was passed through a […] filter before being used to infect target host cells, or being stored at −80° C. HIV capsid protein (p24) levels in the harvested cell culture media were determined by an EIA method as described by the manufacturer (SAIC; Frederick, Md.). Before infection, target cells (293 and 293/T) were plated in cell culture media. Control infections were performed using cell culture media from mock transfections (no DNA) or transfections containing the resistance test vector plasmid DNA without the envelope expression plasmid. One to three or more days after infection, the media was removed and cell lysis buffer (Promega) was added to each well. Cell lysates were assayed for luciferase activity (FIG. 3). The inhibitory effect of the drug was determined using the following equation:
(§3) % luciferase inhibition=1−(RLUluc[drug]÷RLUluc)×100
(§4) where RLUluc [drug] is the Relative Light Unit of luciferase activity in infected cells in the presence of drug, and RLUluc is the Relative Light Unit of luciferase activity in infected cells in the absence of drug. IC50values were obtained from the sigmoidal curves that were generated from the data by plotting the percent inhibition of luciferase activity vs. the log10 drug concentration. The percent luciferase stimulation is the negative of the % inhibition calculated using the formula above.
A resistance test vector was constructed as described in Example 1 from a virus sample obtained from patient 006782. The prior and current treatment regimens are unknown. Isolation of viral RNA and RT/PCR was used to generate a patient derived segment (PDS) that comprised viral sequences coding for all of PR and aa 1-313 of RT. The PDS were inserted into an indicator gene viral vector to generate a resistance test vector designated RTV-006782. RTV-006782 was then tested in a phenotypic assay to determine accurately and quantitatively the level of susceptibility to a panel of anti-retroviral drugs. […]

The subject of test [2] is RTV-309-3/184M. Kind of test: Phenotypic susceptibility assay, RTV-309-3/184M. The class given is cell-based, HIV. The following applies: RTV-309-3 with M184V reverted.
Source text: as §1, §2, §3, §4
A resistance test vector containing all of the mutations present in RTV-309-3 except for the M184V (RTV-309-3/184M) was constructed and tested using the phenotypic assay described earlier. The results were compared to those determined using the parent RTV-309-3. We determined the pattern of phenotypic susceptibility to the NNRTIs, delavirdine, nevirapine and efavirenz, in the reverted vector, RTV-309-3/184M.

Test [3] relates to RTV-1033-3/106V. Put plainly: Phenotypic susceptibility assay, RTV-1033-3/106V. The class given is cell-based, HIV. The following applies: RTV-1033-3 with V106A reverted.
Source text: as §1, §2, §3, §4
A resistance test vector containing all of the mutations present in RTV-1033-3 except for V106A (RTV-1033-3/106V) was constructed and tested using the phenotypic assay described earlier. The results were compared to those determined using the parent RTV-1033-3. We determined the pattern of phenotypic susceptibility to the NNRTIs, delavirdine, nevirapine and efavirenz, in the reverted vector, RTV-1033-3/106V.

Test [4] concerns RTV-1033-3/227F. Put plainly: Phenotypic susceptibility assay, RTV-1033-3/227F. To be noted: RTV-1033-3 with F227L reverted. The class given is cell-based, HIV.
Source text: as §1, §2, §3, §4
A resistance test vector containing all of the mutations present in RTV-1033-3 except for F227L (RTV-1033-3/227F) was constructed and tested using the phenotypic assay described earlier. The results were compared to those determined using the parent RTV-1033-3. We determined the pattern of phenotypic susceptibility to the NNRTIs, delavirdine, nevirapine and efavirenz, in the reverted vector, RTV-1033-3/227F.

Test [5] concerns RTV-K103N/I135T/V245T. Put plainly: Phenotypic susceptibility assay, RTV-K103N/I135T/V245T. Type of test: cell-based, HIV-1. The following applies: site-directed K103N + I135T + V245T.
Source text: as §1, §2, §3, §4
A resistance test vector containing three mutations, K103N, I135T and V245T (RTV-K103N/I135T/V245T) was constructed and tested in the phenotypic assay described earlier. The results were compared to those determined using a genetically defined resistance test vector that was wild type at positions 103, 135 and 245. We determined the pattern of phenotypic susceptibility to the NNRTIs, delavirdine, nevirapine and efavirenz, in RTV-K103N.

The test system of test [6] is RTV-014451. Put plainly: Phenotypic susceptibility assay, RTV-014451. The class given is cell-based, HIV. The following applies: patient 014451, week 32; for decrease in susceptibility: K101E, V106M, G190A on 241 backbone.
Source text: as §1, §2, §3, §4
Resistance test vectors were constructed as described in Example 1 from virus samples obtained from an individual patient at two separate time points separated by a 32-week period. The prior and current treatment regimens are unknown. Isolation of viral RNA and RT/PCR was used to generate patient derived segments (PDS) that comprised viral sequences coding for all of PR and aa […] of RT from […]. The PDS were inserted into an indicator gene viral vector to generate resistance test vectors designated RTV-014459 and RTV-014451. […]

On to `CC(C)Nc1cccnc1N1CCN(C(=O)c2cc3cc(NS(C)(=O)=O)ccc3[nH]2)CC1` [delavirdine], for which the “drug-dependent stimulation of viral replication” value (shortened to “drug-dependent stimulation”) in test [1] was roughly 70%; in test [2], roughly 50%; in test [3], “no drug-dependent stimulation”; in test [4], roughly 100%; in test [5] it was roughly 50%; in test [6] it was roughly 90%. The values for the decrease in susceptibility in test [1] and in test [6] were 18.5 fold and 41 fold, respectively. Besides, in test [2], the “reduction in susceptibility compared to wild type control RTV” value (from here on “reduction in susceptibility”) turned out to be 4 fold. Also, the “increase in susceptibility (hyper-susceptibility) compared to wild type control RTV” value in test [3] came to 20 fold. For the same compound, the “reductions in susceptibility compared to wild type control RTV” value (“reductions in susceptibility” below) in test [4] was 72 fold; in test [5], greater than 250 fold.
Consider `O=C1Nc2ccc(Cl)cc2[C@@](C#CC2CC2)(C(F)(F)F)O1` [efavirenz], for which the “drug-dependent stimulation” value in test [1] was roughly 25%; in test [2], roughly 60%; in test [3], roughly 20%; in test [4] it was roughly 100%; in test [5] it was roughly 25%; in test [6], roughly 70%. Also, the decrease in susceptibility in test [1] is 5 fold; in test [6], greater than 450 fold. Further, the “reduction in susceptibility” value was 5 fold in test [2] and “no reduction” in test [3]. Also, the “reductions in susceptibility” value in test [4] is 18 fold; in test [5] it was 174 fold.
With `Cc1ccnc2c1NC(=O)c1cccnc1N2C1CC1` [nevirapine], the “drug-dependent stimulation” value is roughly 60% in test [1]; roughly 80% in test [2]; roughly 40% in test [3]; roughly 120% in test [4]; roughly 40% in test [5]; roughly 100% in test [6]. In addition, the decrease in susceptibility in test [1] is 8 fold; in test [6], greater than 600 fold. In addition, the “reduction in susceptibility” value in test [2] and in test [3] was 9 fold in each case. Also, the “reductions in susceptibility” value in test [4] was greater than 600 fold; in test [5], 594 fold and 544 fold.
